Here are results for two molecules from paper PMC5931594, “Substrate-bound outward-open structure of a Na^+-coupled sialic acid symporter reveals a new Na^+ site” (Nature Communications, 2018).

Each structure is given as a SMILES string. Like-named read-outs stand apart in the source and are kept apart here. Some results are limits rather than exact numbers.

Usually Kd stands for the free concentration of one partner at which half of the binding sites on the other are occupied at equilibrium, for simple one-to-one binding.

In the test the target is T1, SiaT (Proteus mirabilis, UniProt B4EZY7).
T1 construct: full-length, C-terminal HRV 3C site-GFP-8xHis tag cleaved by 3C protease; reconstituted in proteoliposomes for uptake
T1 sequence (B4EZY7 whole entry): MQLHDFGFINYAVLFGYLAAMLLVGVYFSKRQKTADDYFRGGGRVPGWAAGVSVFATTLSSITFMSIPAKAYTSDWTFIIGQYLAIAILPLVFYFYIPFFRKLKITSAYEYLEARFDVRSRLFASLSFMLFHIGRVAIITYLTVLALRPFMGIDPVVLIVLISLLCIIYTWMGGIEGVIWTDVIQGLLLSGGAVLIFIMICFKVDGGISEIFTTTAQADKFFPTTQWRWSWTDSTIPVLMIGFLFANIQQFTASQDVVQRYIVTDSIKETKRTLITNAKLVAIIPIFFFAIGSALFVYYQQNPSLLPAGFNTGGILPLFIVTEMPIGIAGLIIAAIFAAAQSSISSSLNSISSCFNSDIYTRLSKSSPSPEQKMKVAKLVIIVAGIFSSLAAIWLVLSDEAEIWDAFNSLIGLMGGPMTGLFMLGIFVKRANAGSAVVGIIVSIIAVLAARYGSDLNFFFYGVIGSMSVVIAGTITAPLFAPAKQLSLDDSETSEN
The test is described as follows: microscale thermophoresis, label-free. It is filed as binding. Conditions: PBS, 0.0174% DDM.

As to `O=C(CO)N[C@H]1[C@H]([C@H](O)[C@H](O)CO)OC(O)(C(=O)O)C[C@@H]1O` (some centres unmarked) [N-glycolylneuraminic acid], the Kd (read-out: Kd^Neu5Gc) amounted to 85 ± 2 µM.
Regarding `O=C(O)C1(O)C[C@H](O)[C@@H](O)[C@H]([C@H](O)[C@H](O)CO)O1` (some centres unmarked) [ketodeoxynonulosonic acid], the equilibrium dissociation constant (Kd) is over 10000 µM.
